Assay results published in US10980231B2, “Insect repellent” (Kao Corporation, priority 2015, dated 2021).

Test system: Asian tiger mosquito
Experiment: Evaluation of inhibition of seeking behavior of mosquito for human arm (landing count)
Type: in vivo
Design: tested at 0.1 vol %
Conditions: sample 0.1 vol % in ethanol on breathable sheet on arm; landings in 5 minutes vs ethanol only; female mosquitoes
Procedure: Mosquitoes were prepared for evaluation in the same manner as in Example 1. Approximately 150 to 200 female Asian tiger mosquitoes were transferred in a plastic cage (30×30×30 cm). […] The other three sides were covered with a net, preventing a smell from remaining in the box. A breathable sheet for disposable diapers (air permeance (JIS P8117): 2 sec/300 mL·32 sheets or higher, water vapor transmission rate (JIS Z0208): 1 g/100 cm^2·1 hr or higher) was cut into a size of 6 cm×6 cm, and the resultant was fixed with a tape to the inner side of a Qualatex glove (AS ONE 8-4053-02) cut in 5 cm×5 cm, and […] of an evaluation sample, the concentration of which had been adjusted to 0.1 vol % with ethanol, was uniformly applied onto the breathable sheet. After the application, the resultant was left to stand for approximately 5 minutes, and the attraction test was conducted. The arm was covered with the Qualatex glove provided with the breathable sheet, and inserted in the plastic cage. After the insertion, the number of mosquitoes which landed on the breathable sheet in 5 minutes was counted. In the case that a mosquito landed a plurality of times, all of the landings were counted. In view of the influence of a sample on the mosquitoes, the test was conducted just four times in one cage, and the cage was then replaced with another cage and other mosquitoes were used for the subsequent tests. The inhibitory rate relative to the number of landings with application of ethanol solvent only was calculated to determine the inhibitory effect. Inhibitory rate (%)=100×(1−[number of landings with application of sample]/[number of landings with application of ethanol]) (Equation 2)

| Compound | Inhibitory rate (%) |
| --- | --- |
| CCOC(=O)Cc1ccccc1 [Ethyl phenylacetate, ethyl phenylacetate] | 38.5 |
| CCOC(=O)C(C)C1CCCCC1 (centres unmarked) [Ethyl 2-cyclohexylpropionate, ethyl 2-cyclohexylpropionate] | 58 |
| CCCc1ccc(O)c(OC)c1 [2-Methoxy-4-propylphenol, 2-methoxy-4-propylphenol] | 100 |
| C=CC(O)CCCCC (centres unmarked) [1-Octen-3-ol, 1-octen-3-ol] | 70.5 |
| C=CCCCCCCCCO [9-Decen-1-ol, 9-decen-1-ol] | 93.5 |
| CCCCCCCCCCO [1-Decanol, 1-decanol] | 97.5 |
| CCC/C=C/COC(C)=O [trans-2-Hexenyl acetate, trans-2-hexenyl acetate] | 54 |
| CCCCC(CC)C(=O)OCC (centres unmarked) [Ethyl 2-ethylhexanoate, ethyl 2-ethylhexanoate] | 66 |
| CC1=CC(C)C(CO)C(C)C1 (centres unmarked) [2,4,6-Trimethyl-3-cyclohexene-1-methanol, 2,4,6-trimethyl-3-cyclohexene-1-methanol] | 89 |

Test system: insects
Experiment: not given
Conditions: repellent use; cited from earlier work

| Compound | duration [h] |
| --- | --- |
| CCN(CC)C(=O)c1cccc(C)c1 [DEET, N,N-diethyl-3-methylbenzamide] | 2 to 3 |

Test system: not given
Experiment: not given
Conditions: cited from earlier work

| Compound | skin permeability |
| --- | --- |
| CCN(CC)C(=O)c1cccc(C)c1 [DEET, N,N-diethyl-3-methylbenzamide] | high skin permeability |
